The values that follow come from article PMC2582943 (Antiviral Research, 2008).

Values joined by “and” are separate entries in the source; they are usually repeats but may differ in a detail not shown here. Equal entries are not always repeated. Structures can show the parent of a compound that is named as a salt. Where two headings read alike, the source gives them in different places. Peptide text beside a SMILES is read from it.

The subject of test [1] is SARS-CoV (strain Urbani). Briefly: microbe, parasite or virus in culture. It is filed as cell-based.
In test [2] the test system is SARS-CoV (strain Urbani). Briefly: microbe, parasite or virus in culture. Type of test: cell-based. The source holds these as a separate data set.
A further test has as its system Vero 76 cells. Briefly: cells. It is filed as cell-based, African green monkey.
Test [3] concerns SARS-CoV Frankfurt-1 strain. As to the kind of experiment: microbe, parasite or virus in culture. Type of test: cell-based.
The test system of test [4] is SARS-CoV CHUK-W1 strain. As to the kind of experiment: microbe, parasite or virus in culture. It is filed as cell-based.
Test [5] relates to SARS-CoV Toronto-2 strain. Briefly: microbe, parasite or virus in culture. It is filed as cell-based.
For test [6], the system named is SARS-CoV Frankfurt-1 strain. As to the kind of experiment: microbe, parasite or virus in culture. Type of test: cell-based. This is another data set of the same source.
Test [7] concerns SARS-CoV CHUK-W1 strain. Briefly: microbe, parasite or virus in culture. Type of test: cell-based. The source holds these as a separate data set.
The subject of test [8] is SARS-CoV Toronto-2 strain. As to the kind of experiment: microbe, parasite or virus in culture. It is filed as cell-based. This is another data set of the same source.
The mark [9] stands for this setting: read-out: Neutral red uptake assay EC50.
Setting [10] is: read-out: Virus yield reduction assay EC90.
Where [11] appears, read: read-out: Neutral red uptake assay IC50.
Setting [12] is: read-out: Virus yield reduction assay IC50.
Setting [13] is: read-out: Neutral red uptake assay EC50 ± S.D.
Where [14] appears, read: read-out: VYR assay EC90 ± S.D.
The mark [15] stands for this setting: read-out: Neutral red uptake assay IC50 ± S.D.
[16] abbreviates: Severe acute respiratory syndrome coronavirus, Vero 76, read-out: Neutral red uptake assay EC50.
The mark [17] stands for this setting: Severe acute respiratory syndrome coronavirus, Vero 76, read-out: Neutral red uptake assay EC50 ± S.D.
[18] abbreviates: Severe acute respiratory syndrome coronavirus, Vero 76, read-out: VYR assay EC90 ± S.D.
[19] abbreviates: Severe acute respiratory syndrome coronavirus, Vero 76, read-out: Virus yield reduction assay EC90.
The mark [20] stands for this setting: Chlorocebus sabaeus, Vero 76, read-out: Neutral red uptake assay IC50 ± S.D.
Where [21] appears, read: Chlorocebus sabaeus, Vero 76, read-out: Virus yield reduction assay IC50.
Setting [22] is: Chlorocebus sabaeus, Vero 76, read-out: Neutral red uptake assay IC50.

Consider `OCCCN1c2ccccc2Sc2ccc(Cl)cc21` [2-Chloro-10-(3-chloropropanol)-10H-phenothiazine], for which, in the test on SARS-CoV (strain Urbani) [1], the “Inhibition of virus replication in vitro (in words)” value was “essentially inactive” and the “Neutral red uptake assay SI” value is given as <1. Also, the EC50 (usually the concentration that produces a half-maximal response) in the test on SARS-CoV (strain Urbani) [1] (setting [9]) turned out to be 23 ± 11 µM. Besides, the “Virus yield reduction assay SI” value in the test on SARS-CoV (strain Urbani) [2] is given as <1. In addition, the EC90 (commonly the point of the concentration-response curve where the effect stands at 90%) in the test with SARS-CoV (strain Urbani) [2] (setting [10]) amounted to 27 ± 16.8 µM. The IC50 (in general, the concentration that gives 50% inhibition) in the test with Vero 76 cells (setting [11]) is 20.8 ± 8.1 µM. Also, the IC50 with Vero 76 cells (setting [12]) was determined as 20.8 ± 8.1 µM.

For `CN1CCCC1CN1c2ccccc2Sc2ccccc21.Cl` (stereo not shown) [10-(1-Methyl-2-pyrrolidinymethyl)-phenothiazine·HCl], the EC50 amounted to 24.3 ± 7.4 µM in [3] (setting [13]), 19 ± 2.6 µM in the test on SARS-CoV CHUK-W1 strain [4] (setting [13]) and 28.5 ± 8.1 µM in test [5] (setting [13]). Moreover, the EC90 came out at 28.3 ± 12.9 µM in the test with SARS-CoV (strain Urbani) [2] (setting [14]); 16.9 ± 9.7 µM in the test with SARS-CoV (strain Urbani) [2] (setting [10]); 23.7 ± 6 µM in test [6] (setting [14]); 31.3 ± 14.2 µM in the test on SARS-CoV CHUK-W1 strain [7] (setting [14]); 41.7 ± 4 µM in test [8] (setting [14]). In addition, the IC50 in the test on Vero 76 cells (setting [11]) was 39.9 ± 0.2 µM; in the test on Vero 76 cells (setting [15]) it was 39.7 µM and 32.3 µM and 48 µM and 42.3 µM; in the test with Vero 76 cells (setting [12]), 39.9 ± 0.2 µM.

As for `CC(=O)c1ccc2c(c1)N(CCCN1CCN(CCO)CC1)c1ccccc1S2` [Acetophenazine maleate], the EC50 in the test with SARS-CoV (strain Urbani) [1] (setting [16]) came to 6.6 ± 3.3 µM; in the test with SARS-CoV (strain Urbani) [1] (setting [17]), 8.1 ± 1.4 µM; with SARS-CoV CHUK-W1 strain [4] (setting [17]), 9.6 ± 7.6 µM; in test [5] (setting [17]), 11.5 ± 3.7 µM. Moreover, the EC90 came out at 12.3 ± 2.1 µM with SARS-CoV (strain Urbani) [2] (setting [18]); 10 ± 5 µM in the test on SARS-CoV (strain Urbani) [2] (setting [19]); 10 ± 5.2 µM in test [6] (setting [18]); 11.2 ± 3.2 µM with SARS-CoV CHUK-W1 strain [7] (setting [18]); 13 µM in test [8] (setting [18]). Moreover, the IC50 in the test with Vero 76 cells (setting [20]) is 14.3 ± 6.4 µM; with Vero 76 cells (setting [21]), 13.2 ± 1.6 µM; with Vero 76 cells (setting [15]), 18 µM and 15.5 µM and 13.7 µM.

Regarding `CC(C)C[C@H](NC(=O)OCc1ccccc1)C(=O)N[C@@H](CC(C)C)C(=O)N[C@@H](Cc1ccc(O)cc1)C(=O)CF` [Calpain Inhibitor IV] (HELM PEPTIDE1{[O=C(OCc1ccccc1)[*:2]].L.L.Y.[FC[*:1]]}$$$$V2.0), the “Inhibition of virus replication in vitro (in words)” value with SARS-CoV (strain Urbani) [1] is “inhibited virus replication as expected”. Moreover, the figures for the “Neutral red uptake assay SI” value (with SARS-CoV (strain Urbani) [1]; in [3]; in test [5]) were 9.4, 9.5 and 8.3, respectively. The EC50 worked out at 2.6 µM with SARS-CoV (strain Urbani) [1] (setting [9]); 2.6 ± 0.5 µM in the test with SARS-CoV (strain Urbani) [1] (setting [13]); 4.6 ± 2.1 µM in [3] (setting [13]); 2.6 ± 1.4 µM in the test with SARS-CoV CHUK-W1 strain [4] (setting [13]); 5.4 ± 1.4 µM in test [5] (setting [13]). In addition, the “Virus yield reduction assay SI” value in the test on SARS-CoV (strain Urbani) [2] is 3.3. Moreover, the EC90 in the test with SARS-CoV (strain Urbani) [2] (setting [14]) is 7.2 ± 0.9 µM; in the test with SARS-CoV (strain Urbani) [2] (setting [10]), 7.2 µM; in [6] (setting [14]), 6.5 ± 3.6 µM; in the test on SARS-CoV CHUK-W1 strain [7] (setting [14]), 6.5 ± 3.6 µM; in test [8] (setting [14]), 9.6 ± 3.1 µM. Also, the IC50 was 24.7 ± 7 µM in the test on Vero 76 cells (setting [11]); 24.7 µM and 44 µM and 30 µM and 45 µM in the test with Vero 76 cells (setting [15]); 33 ± 4.1 µM in the test with Vero 76 cells (setting [12]).

Regarding `CN(C)CC/C=C1/c2ccccc2Sc2ccc(Cl)cc21` [Chlorprothixene], the “Neutral red uptake assay SI” value in the test with SARS-CoV (strain Urbani) [1] was 1.9 and 1.4; in test [3], 1.2; with SARS-CoV CHUK-W1 strain [4] it was 1.5; in [5] it was 1.2. For the same molecule, the EC50 in the test on SARS-CoV (strain Urbani) [1] (setting [16]) was found to be 9.5 ± 5.7 µM; in the test on SARS-CoV (strain Urbani) [1] (setting [17]), 12 ± 3.5 µM; in test [3] (setting [17]), 11.1 ± 3.4 µM; in the test with SARS-CoV CHUK-W1 strain [4] (setting [17]) it was 12.6 ± 6.5 µM; in [5] (setting [17]), 12.9 ± 3.6 µM. For the same molecule, the “Virus yield reduction assay SI” value in the test with SARS-CoV (strain Urbani) [2] stood at 1.8. Moreover, the EC90 was 10.5 ± 5.2 µM in the test with SARS-CoV (strain Urbani) [2] (setting [18]); 10.4 ± 4.2 µM in the test with SARS-CoV (strain Urbani) [2] (setting [19]); 12.3 ± 0.6 µM in test [6] (setting [18]); 12.1 ± 4.2 µM in the test with SARS-CoV CHUK-W1 strain [7] (setting [18]); 13 ± 1 µM in test [8] (setting [18]). Further, the IC50 was 13 ± 2 µM with Vero 76 cells (setting [20]); 18.3 ± 3.4 µM with Vero 76 cells (setting [21]); 18.5 µM and 15.8 µM and 16.7 µM in the test with Vero 76 cells (setting [15]).

Take `CCN(CC)C(C)CN1c2ccccc2Sc2ccccc21` (stereo not shown) [Ethopropazine]: the “Neutral red uptake assay SI” value in the test on SARS-CoV (strain Urbani) [1] is reported as 2.0. For the same molecule, the EC50 with SARS-CoV (strain Urbani) [1] (setting [16]) was 30.5 ± 27.5 µM. Moreover, the “Virus yield reduction assay SI” value in the test on SARS-CoV (strain Urbani) [2] is listed as 1.5. In the test on SARS-CoV (strain Urbani) [2] (setting [19]), the EC90 came out at 42 µM. Further, the IC50 in the test with Vero 76 cells (setting [22]) and with Vero 76 cells (setting [21]) was 61.3 ± 34.7 µM throughout.

Regarding `COc1ccc2c(c1)N(C[C@H](C)CN(C)C)c1ccccc1S2` [Methotrimeprazine], the “Neutral red uptake assay SI” value in the test with SARS-CoV (strain Urbani) [1] worked out at 1.4. Moreover, the EC50 in the test on SARS-CoV (strain Urbani) [1] (setting [16]) was 19 ± 8.1 µM. For the same molecule, in the test with SARS-CoV (strain Urbani) [2], the “Virus yield reduction assay SI” value came out at 1.7. Further, the EC90 with SARS-CoV (strain Urbani) [2] (setting [19]) came out at 12.3 ± 1.7 µM. For the same molecule, the IC50 in the test with Vero 76 cells (setting [22]) was determined as 26 ± 10.8 µM; in the test on Vero 76 cells (setting [21]), 21 ± 5.4 µM.

As for `OCCN1CCN(CCCN2c3ccccc3Sc3ccc(Cl)cc32)CC1` [Perphenazine], the “Neutral red uptake assay SI” value in the test on SARS-CoV (strain Urbani) [1] turned out to be 1.6. Also, the 50% effective concentration (EC50) in the test with SARS-CoV (strain Urbani) [1] (setting [9]) is 9.7 ± 1.2 µM. Besides, the “Virus yield reduction assay SI” value with SARS-CoV (strain Urbani) [2] was found to be 1.9. In addition, the IC50 with Vero 76 cells (setting [21]) is 15.8 ± 3.4 µM.
